Data as given in patent publication US20220387430A1, “USE OF COMPOUND IN PREVENTING OR TREATING GRAFT VERSUS HOST DISEASE” (SHENZHEN CHIPSCREEN BIOSCIENCES, CO., LTD., priority 2019, published 2022).

Tested on: GVHD model mice (BALB/c receptor mice, C57BL/6 donor mice)
Assay: GVHD model induced by mouse allogeneic bone marrow transplantation
Format: in vivo
Conditions: for survival rate at 61 days: 61 days after allogeneic bone marrow transplantation
Text: This study evaluates a pharmacodynamics effect of a test drug CS12192 in a GVHD model induced by mouse allogeneic bone marrow transplantation. In the GVHD model, 6-8 week old of two types of C57BL/6 (H-2b) and BALB/c (H-2d) male mice are used as donor and receptor animals respectively. Wherein, C57BL/6 mice are the donor mice, and BALB/c mice are the receptor mice.
The receptor mice are sent to an irradiation center to receive 8.5 Gry systemic irradiation on the day before transplantation, and after the irradiation, the mice are randomly divided into groups according to the body weights of the mice. On day 0, after 3-5% isoflurane pre-anesthesia, the donor mice are killed by cervical dislocation, and spleens are excised in a sterile environment, ground, and filtered by a sterile filter. Then red blood cells are digested with ammonium chloride buffer solution, lymphocytes are washed twice with RPMI 1640 culture solution, and finally resuspended in RPMI 1640 culture solution containing 10% fetal bovine serum, to prepare a lymphocyte suspension.
The receptor mice are divided into 6 groups, and each group includes 10 mice.

SMILES: C=CC(=O)N(C)c1cc(Nc2ncc(Cl)c(NCCCNC(=O)c3ccc(C#N)cc3)n2)ccc1F [CS12192]
- survival rate at 61 days (CS12192 40 mg/kg twice a day, p<0.0005 relative to the vehicle control): 89%
- survival rate at 61 days (CS12192 80 mg/kg twice a day, p<0.0001 relative to the vehicle control): 100%
- weight gains of the mice (CS12192 two-dose groups (40 and 80 mg/kg twice a day) versus positive drug prednisolone group and solvent control group (FIG. 2)): significantly better than that of the positive drug prednisolone group

SMILES: C[C@]12C=CC(=O)C=C1CC[C@@H]1[C@@H]2[C@@H](O)C[C@@]2(C)[C@H]1CC[C@]2(O)C(=O)CO [prednisolone, reference compound]
- survival rate at 61 days (prednisolone 20 mg/kg once a day, p<0.01 relative to the vehicle control): 67%
